The results in this text go back to paper PMC11331526 (2024).

The assay relates to d(G5C5)2 (G5C5) (DNA, duplex) GGGGGCCCCC
As to the kind of experiment: emission titration, Bard fit. The note with it: 50 mM potassium phosphate, pH 7, 298 K, table title per base pair, fit per nucleotide.

As to `[Ru+2].c1ccc2cc3nc4c5cccnc5c5ncccc5c4nc3cc2c1.c1cnc2c(ccc3nccnc32)n1.c1cnc2c(ccc3nccnc32)n1`, under “site size 2.6, text error ±0.6”, the Kb is 2.5(±0.4) × 10^6 M^-1.

Take `[Ru+2].c1ccc2c(c1)ccc1nc3c4cccnc4c4ncccc4c3nc12.c1cnc2c(ccc3nccnc32)n1.c1cnc2c(ccc3nccnc32)n1`: where the note is “site size 3.4, text prints 10^5”, the Kb is 9.4(±1.2) × 10^6 M^-1.
